Measurements from patent US20100113363A1, “Use of GLP-1 Peptides” (Novo Nordisk A/S, priority 1996, published 2010).
Like-named read-outs stand apart in the source and are kept apart here. No end group written: not given here.

How the values were obtained:
[1] = rats, Tang-Christensen et al., cited from earlier work
[2] = rats, Turton et al., cited from earlier work
[3] = Appetite suppression in mice: sucrose consumption, tested immediately after intraperitoneal injection; assay type: in vivo; details: 85 micrograms (3.4 mg/kg) intraperitoneally, 10 minute period, p-value 0.002
Description: Mice were deprived of their normal food for two days and given free access to a 20% sucrose solution on the first day of food deprivation. After the two day food deprivation period, the mice were injected intraperitoneally with 0.5ml of a solution containing the test substance. Immediately after injection, individual mice were placed in one of eight 15 cm square test boxes with a stainless steel grid floor and a glass drinking tube which projected into the box. […] Consumption of the sucrose solution was measured over a 10 minute period by electronically recording the total amount of contact with the sucrose solution during the test session. The degree of appetite suppression produced by a given test substance was determined by statistical comparison of the mean duration of sucrose consumption by control (vehicle treated) mice with that of mice treated with a test substance. The degree of appetite suppression in a treated group of mice was expressed as percent difference between the test and control group's response duration means. […]

[4] = Suppression of appetite in mice by subcutaneously injected synthetic GLP-1(7-36)amide: Complan consumption; assay type: in vivo; details: p<0.001
Description: The test method was as described in Example 3 except that the mice were pre-exposed to formula milk (Complan®—a nutritionally complete infant milk substitute) for one day, then fasted […]. On the test day, consumption of Complan® was measured for each mouse during a 10 min period.
Mice were tested for appetite suppression by subcutaneous injection of GLP-1(7-36)amide dissolved in phosphate buffered saline.

[5] = iv infusion of GLP-1(7-36)amide in healthy human volunteers: visual analogue scale ratings and ad libitum lunch energy intake; assay type: in vivo; details: iv infusion 50 pmol/(kg·h)
From the text: Healthy human volunteers (20 subjects) were in a double-blind crossover trial given an iv infusion of 50 pmol/(kg·h) of GLP-1(7-36)amide or saline on separate, but otherwise identical experimental days. The infusion was started at 9.00 and lasted until 15.00. At 9.45 the subjects received a fixed amount of breakfast and at 14.15 they had lunch of an identical composition but ad libitum. The subjects rated their feeling of satiety, hunger, fullness and appetite on a visual analogue scale every half hour. The results are given below:
The energy intake of each subjects was measured. The intakes were 3.9 MJ with GLP-1 and 4.3 MJ with Saline resulting in a p-value of 0.009.

[6] = administered intracerebroventricularly

Substance	effect on food intake ([1]; route not stated)	effect on food intake [2, 6]	effect on food intake ([2]; peripheral administration)	effect on food intake [1, 6]	effect on food intake ([1]; peripherally administered)	suppression of sucrose consumption [3]	suppression of feeding ([4]; 1 mg/kg subcutaneous, 30 min after injection)	maximum effect, suppression of feeding ([4]; 20 mg/kg subcutaneous (highest dose tested))	energy intake ([5]; ad libitum lunch, saline 4.3 MJ, p-value 0.009)	Satiety (visual analogue scale) ([5]; versus saline, p = 0.006)	Appetite (visual analogue scale) ([5]; versus saline, p = 0.007)	Hunger (visual analogue scale) ([5]; versus saline, p = 0.007)	Fullness (visual analogue scale) ([5]; versus saline, p = 0.010)
GLP-1(1-36)amide (HDEFERHAEGTFTSDVSSYLEGQAAKEFIAWLVKGR-NH2; UniProt P01275 92-127, looked up, fragment) [fragment 1-36 of GLP-1, C-terminal amide]	no effect												
GLP-1(7-36)amide		profound effect	inactive	profound effect	no significant effect	60%	45%	60%	3.9 mJ	GLP-1 > Saline, p = 0.006	GLP-1 < Saline, p = 0.007	GLP-1 < Saline, p = 0.007	GLP-1 > Saline, p = 0.010
